Measured values from publication PMC5681660, “Reduced hepatitis B and D viral entry using clinically applied drugs as novel inhibitors of the bile acid transporter NTCP” (Scientific Reports, 2017).
Where a name gives a salt, the structure may show the parent alone. Read-outs that look alike come from different tables or passages of the source.

Experiments:
[1] = target: T1, human NTCP (Homo sapiens, UniProt Q14973); assay: Screening taurocholate uptake assay (96-well, [14C]taurocholate, 10 µM drug)
T1 sequence (Q14973 1-349): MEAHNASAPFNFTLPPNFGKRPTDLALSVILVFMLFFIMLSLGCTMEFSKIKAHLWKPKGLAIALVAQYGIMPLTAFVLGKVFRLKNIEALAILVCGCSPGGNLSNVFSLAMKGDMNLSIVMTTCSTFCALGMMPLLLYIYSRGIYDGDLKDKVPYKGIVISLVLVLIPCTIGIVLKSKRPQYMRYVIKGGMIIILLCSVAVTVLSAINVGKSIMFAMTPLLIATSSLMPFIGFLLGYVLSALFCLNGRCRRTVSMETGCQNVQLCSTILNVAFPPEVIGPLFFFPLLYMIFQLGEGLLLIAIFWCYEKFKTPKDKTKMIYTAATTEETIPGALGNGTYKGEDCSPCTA

[2] = target: T1, human NTCP; assay: Screening fluorescent competitive Myrcludex B-FITC binding assay (96-well, 10 µM drug)
[3] = combined ranking from functional and binding screening assays
[4] = screen, 10 µM drug, taurocholate uptake
[5] = screen, 10 µM drug, Myrcludex B-FITC binding
[6] = Prestwick library screen, taurocholate uptake, 10 µM drug
[7] = ranking score beside the functional and binding assay B-scores of the screen
[8] = Prestwick library screen, Myrcludex B-FITC binding, 10 µM drug
[9] = Prestwick library screen, 10 µM drug, B-score of taurocholate uptake
[10] = combined ranking from functional and binding assay B-scores
[11] = Prestwick library screen, 10 µM drug, B-score of Myrcludex B-FITC binding

SMILES: Nc1ccc(C(=O)O)c(O)c1 [4-aminosalicylic acid]
- Ranking score [1, 3]: 360.074
- B-score functional assay [1, 4]: -0.405
- B-score binding assay [2, 5]: -0.683

SMILES: O=c1[nH]cc(F)c(=O)[nH]1 [5-fluorouracil]
- Ranking score [1, 3]: 327.242
- B-score functional assay [1, 4]: -0.016
- B-score binding assay [2, 5]: -1.388

SMILES: c1coc(CNc2ncnc3nc[nH]c23)c1 [6-Furfurylaminopurine]
- B-score functional assay [1, 6]: 2.357
- Ranking score [1, 7]: 696.25
- B-score binding assay [2, 8]: -0.434

SMILES: CC(C)NC[C@@H](O)c1ccc(O)c(O)c1.O=C(O)C(O)C(O)C(=O)O [(+)-Isoproterenol (+)-bitartrate salt]
- B-score functional assay [1, 6]: 2.072
- Ranking score [1, 7]: 708.011
- B-score binding assay [2, 8]: -0.368

SMILES: Nc1nc(=O)n([C@@H]2CS[C@H](CO)O2)cc1F [(-)-Emtricitabine]
- B-score functional assay [1, 9]: 1.373
- Ranking score [1, 10]: 1006
- B-score binding assay [2, 11]: 0.464

SMILES: C[C@@]12N[C@@H](Cc3ccccc31)c1ccccc12.O=C(O)/C=C\C(=O)O [(-)-MK 801 hydrogen maleate]
- B-score functional assay [1, 6]: -0.004
- Ranking score [1, 7]: 690.814
- B-score binding assay [2, 8]: 0.115

SMILES: COc1ccc2cc([C@@H](C)C(=O)[O-])ccc2c1.[Na+] [(R) -Naproxen sodium salt]
- B-score functional assay [1]: -0.341
- Ranking score [1]: 667.638
- B-score binding assay [2]: 0.921

SMILES: CC(C)NC[C@@H](O)COc1ccc(CC(N)=O)cc1 [(R)-(+)-Atenolol]
- B-score functional assay [1, 6]: 0.006
- Ranking score [1, 7]: 655.981
- B-score binding assay [2, 8]: 0.009

SMILES: CNCC[C@@H](Oc1cccc2ccccc12)c1cccs1.Cl [(R)-Duloxetine hydrochloride]
- B-score functional assay [1]: 1.079
- Ranking score [1]: 610.37
- B-score binding assay [2]: -0.619

SMILES: CC(C)NC[C@@H](O)COc1cccc2ccccc12.Cl [(R)-Propranolol hydrochloride]
- B-score functional assay [1]: 1.016
- Ranking score [1]: 935.855
- B-score binding assay [2]: 0.252

SMILES: CC(C)NC[C@H](O)COc1ccc(CC(N)=O)cc1 [(S)-(-)-Atenolol]
- Ranking score [1, 3]: 412.97
- B-score functional assay [1, 4]: -0.386
- B-score binding assay [2, 5]: -0.394

SMILES: C[C@H]1O[C@H](O[C@H]2[C@H](O)[C@@H](O)[C@@H](O[C@H]3[C@H](O)[C@@H](O)C(O)O[C@@H]3CO)O[C@@H]2CO)[C@H](O)[C@@H](O)[C@@H]1N[C@H]1C=C(CO)[C@@H](O)[C@H](O)[C@H]1O (stereo partly drawn) [Acarbose]
- B-score functional assay [1, 6]: 1.632
- Ranking score [1, 7]: 792.136
- B-score binding assay [2, 8]: -0.109

SMILES: CCCC(=O)Nc1ccc(OCC(O)CNC(C)C)c(C(C)=O)c1 (stereo not drawn) [Acebutolol hydrochloride]
- B-score functional assay [1, 9]: 1.681
- Ranking score [1, 10]: 904.34
- B-score binding assay [2, 11]: 0.049

SMILES: O=C(O)COC(=O)Cc1ccccc1Nc1c(Cl)cccc1Cl [Aceclofenac]
- Ranking score [1, 3]: 377.221
- B-score functional assay [1, 4]: -0.535
- B-score binding assay [2, 5]: -0.456

SMILES: Cn1c(=O)c2c(ncn2CC(=O)O)n(C)c1=O [Acefylline]
- B-score functional assay [1, 9]: 0.41
- Ranking score [1, 10]: 910.022
- B-score binding assay [2, 11]: 0.607

SMILES: COc1ccc2c(c1)c(CC(=O)OCC(=O)O)c(C)n2C(=O)c1ccc(Cl)cc1 [Acemetacin]
- B-score functional assay [1, 6]: 0.011
- Ranking score [1, 7]: 813.791
- B-score binding assay [2, 8]: 0.865

SMILES: CC(=O)CC(c1ccc([N+](=O)[O-])cc1)c1c(O)c2ccccc2oc1=O (stereo not drawn) [Acenocoumarol]
- B-score functional assay [1, 9]: 0.873
- Ranking score [1, 10]: 950.096
- B-score binding assay [2, 11]: 0.383

SMILES: CC(=O)Nc1nnc(S(N)(=O)=O)s1 [Acetazolamide]
- B-score functional assay [1, 6]: 0.532
- Ranking score [1, 7]: 696.956
- B-score binding assay [2, 8]: -0.137

SMILES: CC(=O)c1ccc(S(=O)(=O)NC(=O)NC2CCCCC2)cc1 [Acetohexamide]
- B-score functional assay [1, 9]: 0.057
- Ranking score [1, 10]: 875.07
- B-score binding assay [2, 11]: 1.192

SMILES: CC(=O)c1ccc2c(c1)N(CCCN(C)C)c1ccccc1S2.O=C(O)/C=C\C(=O)O [Acetopromazine maleate salt]
- Ranking score [1, 3]: 331.723
- B-score functional assay [1, 4]: 0.92
- B-score binding assay [2, 5]: -2.054

SMILES: CC(=O)Oc1ccccc1C(=O)Oc1ccccc1C(=O)O [Acetylsalicylsalicylic acid]
- B-score functional assay [1, 6]: 0.347
- Ranking score [1, 7]: 734.743
- B-score binding assay [2, 8]: -0.007

SMILES: Cc1cnc(C(=O)O)c[n+]1[O-] [Acipimox]
- B-score functional assay [1, 9]: 0.91
- Ranking score [1, 10]: 894.262
- B-score binding assay [2, 11]: 0.142

SMILES: COc1cc(C)c(/C=C/C(C)=C/C=C/C(C)=C/C(=O)O)c(C)c1C [Acitretin]
- Ranking score [1, 3]: 302.82
- B-score functional assay [1, 4]: 0.046
- B-score binding assay [2, 5]: -1.766

SMILES: CC(=O)Nc1ccc(CC(=O)O)cc1 [Actarit]
- B-score functional assay [1, 6]: -0.304
- Ranking score [1, 7]: 719.277
- B-score binding assay [2, 8]: 1.648

SMILES: Nc1nc2c(ncn2COCCO)c(=O)[nH]1 [Acyclovir]
- B-score functional assay [1, 6]: 0.026
- Ranking score [1, 7]: 658.696
- B-score binding assay [2, 8]: 0

SMILES: NC12CC3CC(CC(C3)C1)C2.O=C(O)/C=C/C(=O)O [Adamantamine fumarate]
- B-score functional assay [1, 6]: -0.004
- Ranking score [1, 7]: 748.28
- B-score binding assay [2, 8]: 0.399

SMILES: Nc1ncnc2c1ncn2[C@@H]1O[C@H](COP(=O)(O)O)[C@@H](O)[C@H]1O.O [Adenosine 5'-monophosphate monohydrate]
- B-score functional assay [1, 9]: 0.641
- Ranking score [1, 10]: 1091.98
- B-score binding assay [2, 11]: 2.827

SMILES: CCN(CC)CCOC(=O)C(c1ccccc1)c1ccccc1 [Adiphenine hydrochloride]
- Ranking score [1, 3]: 440.174
- B-score functional assay [1, 4]: -0.012
- B-score binding assay [2, 5]: -0.701

SMILES: C[C@]12CCC(=O)C=C1CC[C@@H]1[C@@H]2C(=O)C[C@]2(C)C(=O)CC[C@@H]12 [Adrenosterone]
- Ranking score [1, 3]: 291.781
- B-score functional assay [1, 4]: -0.902
- B-score binding assay [2, 5]: -0.699

SMILES: CCCSc1ccc2nc(NC(=O)OC)[nH]c2c1 [Albendazole]
- B-score functional assay [1]: -0.13
- Ranking score [1]: 731.855
- B-score binding assay [2]: 0.993

SMILES: C=CC[N@@+]12CC[C@@]34c5ccccc5N5/C=C6/[C@H]7C[C@H]8[C@@]9(CC[N@@+]8(CC=C)C/C7=C/CO)c7ccccc7N(/C=C(/[C@@H](C[C@@H]31)/C(=C\CO)C2)[C@H]54)[C@@H]69.[Cl-].[Cl-] [Alcuronium chloride]
- Ranking score [1, 3]: 375.739
- B-score functional assay [1, 4]: 1.096
- B-score binding assay [2, 5]: -1.767

SMILES: NCCCC(O)(P(=O)(O)O)P(=O)(O)O [Alendronate sodium]
- Ranking score [1, 3]: 453.598
- B-score functional assay [1, 4]: 0.279
- B-score binding assay [2, 5]: -0.968

SMILES: CC(=O)OCC(=O)[C@H]1CC[C@H]2[C@@H]3CC[C@H]4C[C@H](O)CC[C@]4(C)[C@H]3C(=O)C[C@]12C [Alfadolone acetate]
- B-score functional assay [1, 9]: 0.626
- Ranking score [1, 10]: 1074.24
- B-score binding assay [2, 11]: 2.253

SMILES: Oc1ncnc2[nH]ncc12 [Allopurinol]
- B-score functional assay [1, 6]: 0.076
- Ranking score [1, 7]: 820.729
- B-score binding assay [2, 8]: 0.547

SMILES: CCCCC[C@H](O)/C=C/[C@H]1[C@H](O)CC(=O)[C@@H]1CCCCCCC(=O)O [Alprostadil]
- B-score functional assay [1, 6]: 0.966
- Ranking score [1, 7]: 841.475
- B-score binding assay [2, 8]: 0.02

SMILES: C=CCSCC1Nc2cc(Cl)c(S(N)(=O)=O)cc2S(=O)(=O)N1 (stereo not drawn) [Althiazide]
- B-score functional assay [1, 9]: 0.092
- Ranking score [1, 10]: 866.45
- B-score binding assay [2, 11]: 0.861

SMILES: CCN(CCCc1ccccc1)CCCc1ccccc1.O=C(O)CC(O)(CC(=O)O)C(=O)O [Alverine citrate salt]
- Ranking score [1, 3]: 318.591
- B-score functional assay [1, 4]: -1.552
- B-score binding assay [2, 5]: -0.052

SMILES: Cl.Nc1c(Br)cc(Br)cc1CNC1CCC(O)CC1 (stereo not drawn) [Ambroxol hydrochloride]
- B-score functional assay [1, 9]: 0.006
- Ranking score [1, 10]: 860.528
- B-score binding assay [2, 11]: 1.513

SMILES: CCN(CC)C(C)C(=O)c1ccccc1 (stereo not drawn) [Amfepramone hydrochloride]
- B-score functional assay [1, 9]: 0.339
- Ranking score [1, 10]: 1034.63
- B-score binding assay [2, 11]: 2.906

SMILES: Cc1c(N(C)C)c(=O)n(-c2ccccc2)n1C [Amidopyrine]
- Ranking score [1, 3]: 343.366
- B-score functional assay [1, 4]: -0.111
- B-score binding assay [2, 5]: -1.103

SMILES: NCCCNCCSP(=O)(O)O [Amifostine]
- B-score functional assay [1, 6]: 0.006
- Ranking score [1, 7]: 764.099
- B-score binding assay [2, 8]: 0.481

SMILES: NCC[C@H](O)C(=O)N[C@@H]1C[C@H](N)[C@@H](O[C@H]2O[C@H](CN)[C@@H](O)[C@H](O)[C@H]2O)[C@H](O)[C@H]1O[C@H]1O[C@H](CO)[C@@H](O)[C@H](N)[C@H]1O [Amikacin hydrate]
- B-score functional assay [1, 9]: 1.395
- Ranking score [1, 10]: 1074.44
- B-score binding assay [2, 11]: 0.912

SMILES: N=C(N)NC(=O)c1nc(Cl)c(N)nc1N [Amiloride hydrochloride dihydrate]
- Ranking score [1, 3]: 420.464
- B-score functional assay [1, 4]: -1.628
- B-score binding assay [2, 5]: 1.12

SMILES: NCCCCCC(=O)O [Aminocaproic acid]
- B-score functional assay [1, 9]: 1.656
- Ranking score [1, 10]: 1108.16
- B-score binding assay [2, 11]: 1.053

SMILES: Nc1ccc(C(=O)NCC(=O)O)cc1 [Aminohippuric acid]
- B-score functional assay [1, 9]: 1.44
- Ranking score [1, 10]: 1073.5
- B-score binding assay [2, 11]: 0.866
